Results: patent US7592436B2, “Gene encoding a protein having aurone synthesis activity” (International Flower Developments Proprietary Limited, priority 1998, dated 2009)

What was measured:
aurone synthase = assay: Measurement of aurone synthase activity (HPLC); format: biochemical, snapdragon; details: for Conversion of substrate to aureusidin by purified aurone synthase: product confirmed by HPLC analysis
Experimental: The reaction was started by adding 5 μl of THC, having an absorbance of 462 at 366 nm in ethanol, to 50 μl of 1 M sodium acetate buffer (pH 5.0) and 350 μl of crude enzyme solution diluted with water. After allowing to react for 1 hour at 30° C., and adding 100 μl of an aqueous solution of 90% (v/v) acetonitrile containing 1% (v/v) TFA to stop the reaction, activity was measured by HPLC. The crude enzyme solution in each purification step described later in Example 4 was measured.
The YMC J'Sphere ODS M80 column (4.6×150 mm) was used and the flow rate was set at 0.7 ml/min. Using a 0.1% aqueous solution of TFA as solvent A, and a 90% aqueous solution of acetonitrile containing 0.1% TFA as solvent B, a sample was injected into the column, after which the ratio of A:B was held at 7:3 for first 3 minutes, and then changed to 6:4 by a linear concentration gradient for next 10 minutes. This concentration was maintained for 5 minutes. After changing the ratio of A:B to 7:3 for next one minute, this concentration was maintained for 5 minutes.

tyrosinase = assay: Aurone synthesis activity of tyrosinase; format: biochemical, Neurospora; details: HPLC
Experimental: After mixing tyrosinase (Sigma catalog no. T7755; 0.04 mg/ml, 10 μl), 0.1 M sodium phosphate buffer (pH 6.5, 335 μl), 9% CHAPS (20 μl) and milli-Q water (20 μl), the mixture was incubated for 10 minutes at 30° C., followed by the addition of tetrahydroxychalcone (THC, 4.3 mM in ethanol, 15 μl), stirring immediately and reacting for 30 minutes at 30° C. After reaction, 100 μl of reaction stopping solution (10% trifluoroacetate solution containing 90% acetonitrile) was added to the reaction mixture to stop the reaction, followed by HPLC analysis. Analysis was performed in the same manner as described in Example 3. Water was used instead of tyrosinase as a control.
In addition, the reaction was carried out under the same conditions using pentahydroxychalcone (PHC) instead of THC as a substrate, and using 0.116 M sodium citrate phosphate buffer (pH 5.4) as a buffer. Similarly, water was used instead of tyrosinase as a control.

Row | Structure (SMILES) | Conversion of substrate to aureusidin by purified aurone synthase (aurone synthase) | Reaction product formed from substrate by tyrosinase (tyrosinase; 0.1 M sodium phosphate buffer pH 6.5, 30 minutes at 30° C.) | Change of enzyme activity on addition (aurone synthase; hydrogen peroxide added) | Reaction product formed from substrate by tyrosinase (tyrosinase; 0.116 M sodium citrate phosphate buffer pH 5.4, 30 minutes at 30° C.)
1 | O=C(/C=C/c1ccc(O)cc1)c1c(O)cc(O)cc1O [THC, tetrahydroxychalcone] | converts both THC and pentahydroxychalcone to aureusidin | reaction product aureusidin | – | –
2 | OO [hydrogen peroxide] | – | – | activity increased somewhat | –
3 | O=C(/C=C/c1ccc(O)c(O)c1)c1c(O)cc(O)cc1O [pentahydroxychalcone] | converts both THC and pentahydroxychalcone to aureusidin | – | – | reaction product aureusidin
